Measured values from PubChem BioAssay AID1845206 (Molecular Pharmacology Branch, DTP, NCI, 2023).
Values joined by “and” are separate entries in the source; they are usually repeats but may differ in a detail not shown here. Equal entries are not always repeated. Active and inactive are the calls of the source. Rule for the calls: active = viability on the fitted dose curve at most 10% of control; inactive = the rest.

Test system: NCI-H1618 multicellular tumor spheroid viability
Test: Anticancer human tumor NCI-H1618 cell line growth inhibition;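 note: spheroids exposed to agents for 7 days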
Conditions: for viability, T/C: stronger effect = lower value
Method in brief: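 Complex spheroids of malignant cells with endothelial cells and mesenchymal stem cells; agents alone or combined, from near clinical Cmax (or 10 microM if unknown) down in half-log steps, 0.25% DMSO final.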

[1] = curve of first compound, second compound 30 pM
[2] = curve of first compound, second compound 94.9 pM
[3] = curve of first compound, second compound 0.0003 µM
[4] = curve of first compound, second compound 0.000949 µM
[5] = curve of first compound, second compound 0.003 µM
[6] = second compound 30 pM, first compound 0.0316 µM
[7] = second compound 30 pM, first compound 0.1 µM
[8] = second compound 30 pM, first compound 0.316 µM
[9] = second compound 30 pM, first compound 1 µM
[10] = second compound 30 pM, first compound 3.16 µM
[11] = second compound 30 pM, first compound 10 µM
[12] = second compound 94.9 pM, first compound 0.0316 µM
[13] = second compound 94.9 pM, first compound 0.1 µM
[14] = second compound 94.9 pM, first compound 0.316 µM
[15] = second compound 94.9 pM, first compound 1 µM
[16] = second compound 94.9 pM, first compound 3.16 µM
[17] = second compound 94.9 pM, first compound 10 µM
[18] = second compound 0.0003 µM, first compound 0.0316 µM
[19] = second compound 0.0003 µM, first compound 0.1 µM
[20] = second compound 0.0003 µM, first compound 0.316 µM
[21] = second compound 0.0003 µM, first compound 1 µM
[22] = second compound 0.0003 µM, first compound 3.16 µM
[23] = second compound 0.0003 µM, first compound 10 µM
[24] = second compound 0.000949 µM, first compound 0.0316 µM
[25] = second compound 0.000949 µM, first compound 0.1 µM
[26] = second compound 0.000949 µM, first compound 0.316 µM
[27] = second compound 0.000949 µM, first compound 1 µM
[28] = second compound 0.000949 µM, first compound 3.16 µM
[29] = second compound 0.000949 µM, first compound 10 µM
[30] = second compound 0.003 µM, first compound 0.0316 µM
[31] = second compound 0.003 µM, first compound 0.1 µM
[32] = second compound 0.003 µM, first compound 0.316 µM
[33] = second compound 0.003 µM, first compound 1 µM
[34] = second compound 0.003 µM, first compound 3.16 µM
[35] = second compound 0.003 µM, first compound 10 µM

Cc1cc(C)c(CNC(=O)c2cc(-c3ccc(CN4CCOCC4)cc3)cc3c2cnn3C2CCCC2)c(=O)[nH]1 + COc1cc2c(cc1O)CCNC21CSC2c3c(OC(C)=O)c(C)c4c(c3C(COC1=O)N1C(O)C3Cc5cc(C)c(OC)c(O)c5C(C21)N3C)OCO4
IC50 [1]: > 10000 nM
IC50 [2]: 1770 nM
IC50 [3]: < 31.6 nM
IC50 [4]: < 31.6 nM
IC50 [5]: < 31.6 nM
viability, T/C [6]: 92.5%
viability, T/C [7]: 86.8%
viability, T/C [8]: 89.7%
viability, T/C [9]: 72.7%
viability, T/C [10]: 88%
viability, T/C [11]: 58.6%
viability, T/C [12]: 46.9%
viability, T/C [13]: 66.5%
viability, T/C [14]: 66.9%
viability, T/C [15]: 55%
viability, T/C [16]: 45.7%
viability, T/C [17]: 44.2%
viability, T/C [18]: 2.47%
viability, T/C [19]: 10.3%
viability, T/C [20]: 4.67%
viability, T/C [21]: 5.71%
viability, T/C [22]: 2.43%
viability, T/C [23]: 2.6%
viability, T/C [24]: 4.74%
viability, T/C [25]: 7.05%
viability, T/C [26]: 2.83%
viability, T/C [27]: 3.43%
viability, T/C [28]: 3.12%
viability, T/C [29]: 2.59%
viability, T/C [30]: 2.14%
viability, T/C [31]: 3%
viability, T/C [32]: 3.25%
viability, T/C [33]: 4.16%
viability, T/C [34]: 3.95%
viability, T/C [35]: 1.24%

Cc1sc2c(c1C)C(c1ccc(Cl)cc1)=NC(CC(=O)Nc1ccc(O)cc1)c1nnc(C)n1-2 (stereo not given)
viability, T/C (compound 0.00949 µM): 109% (2×) and 110%
viability, T/C (compound 0.03 µM): 105% and 108% and 115%
outcome (compound 0.0949 µM): inactive
viability, T/C (compound 0.0949 µM): 100%
viability, T/C (compound 0.3 µM): 102% and 95.7% and 56.4%
viability, T/C (compound 0.949 µM): 91.1% and 80.5% and 47%
viability, T/C (compound 3 µM): 33.8% and 35.4% and 16.8%
IC50 (curve of compound): 2160 nM and 2060 nM and 567 nM

CC(C)n1c(=O)n(C)c2cnc3cc(F)c(-c4ccc(OCCCN5CCCCC5)nc4)cc3c21 + CC[C@@]1(O)C(=O)OCc2c1cc1n(c2=O)Cc2cc3c(CN(C)C)c(O)ccc3nc2-1
IC50 [5]: > 10000 nM
IC50 (curve of first compound, second compound 0.00949 µM): < 31.6 nM
IC50 (curve of first compound, second compound 0.03 µM): < 31.6 nM
IC50 (curve of first compound, second compound 0.0949 µM): < 31.6 nM
IC50 (curve of first compound, second compound 0.3 µM): < 31.6 nM
viability, T/C [30]: 56.8%
viability, T/C [31]: 51.4%
viability, T/C [32]: 51.9%
viability, T/C [33]: 66.7%
viability, T/C [34]: 72.7%
viability, T/C [35]: 38.1%
viability, T/C (second compound 0.00949 µM, first compound 0.0316 µM): 7.93%
viability, T/C (second compound 0.00949 µM, first compound 0.1 µM): 4.31%
viability, T/C (second compound 0.00949 µM, first compound 0.316 µM): 8.14%
viability, T/C (second compound 0.00949 µM, first compound 1 µM): 10.5%
viability, T/C (second compound 0.00949 µM, first compound 3.16 µM): 12.8%
viability, T/C (second compound 0.00949 µM, first compound 10 µM): 14.4%
viability, T/C (second compound 0.03 µM, first compound 0.0316 µM): 4.99%
viability, T/C (second compound 0.03 µM, first compound 0.1 µM): 4.95%
viability, T/C (second compound 0.03 µM, first compound 0.316 µM): 4.02%
viability, T/C (second compound 0.03 µM, first compound 1 µM): 2.3%
viability, T/C (second compound 0.03 µM, first compound 3.16 µM): 2.79%
viability, T/C (second compound 0.03 µM, first compound 10 µM): 1.82%
viability, T/C (second compound 0.0949 µM, first compound 0.0316 µM): 4.98%
viability, T/C (second compound 0.0949 µM, first compound 0.1 µM): 3.54%
viability, T/C (second compound 0.0949 µM, first compound 0.316 µM): 8.33%
viability, T/C (second compound 0.0949 µM, first compound 1 µM): 4.32%
viability, T/C (second compound 0.0949 µM, first compound 3.16 µM): 7.17%
viability, T/C (second compound 0.0949 µM, first compound 10 µM): 4.95%
viability, T/C (second compound 0.3 µM, first compound 0.0316 µM): 4.62%
viability, T/C (second compound 0.3 µM, first compound 0.1 µM): 4.88%
viability, T/C (second compound 0.3 µM, first compound 0.316 µM): 4.27%
viability, T/C (second compound 0.3 µM, first compound 1 µM): 4.09%
viability, T/C (second compound 0.3 µM, first compound 3.16 µM): 5.96%
viability, T/C (second compound 0.3 µM, first compound 10 µM): 6.01%

Cn1ncnc1[C@H]1c2n[nH]c(=O)c3cc(F)cc(c23)N[C@@H]1c1ccc(F)cc1 + COc1cc2c(cc1O)CCNC21CSC2c3c(OC(C)=O)c(C)c4c(c3C(COC1=O)N1C(O)C3Cc5cc(C)c(OC)c(O)c5C(C21)N3C)OCO4
IC50 [1]: 45.4 nM
IC50 [2]: < 9.49 nM
IC50 [3]: < 9.49 nM
IC50 [4]: < 9.49 nM
IC50 [5]: < 9.49 nM
viability, T/C (second compound 30 pM, first compound 0.00949 µM): 95.5%
viability, T/C (second compound 30 pM, first compound 0.03 µM): 46.9%
viability, T/C (second compound 30 pM, first compound 0.0949 µM): 53%
viability, T/C (second compound 30 pM, first compound 0.3 µM): 10.2%
viability, T/C (second compound 30 pM, first compound 0.949 µM): 2.52%
viability, T/C (second compound 30 pM, first compound 3 µM): 3.76%
viability, T/C (second compound 94.9 pM, first compound 0.00949 µM): 44.3%
viability, T/C (second compound 94.9 pM, first compound 0.03 µM): 37.8%
viability, T/C (second compound 94.9 pM, first compound 0.0949 µM): 3.24%
viability, T/C (second compound 94.9 pM, first compound 0.3 µM): 2.22%
viability, T/C (second compound 94.9 pM, first compound 0.949 µM): 2.54%
viability, T/C (second compound 94.9 pM, first compound 3 µM): 4.25%
viability, T/C (second compound 0.0003 µM, first compound 0.00949 µM): 10.6%
viability, T/C (second compound 0.0003 µM, first compound 0.03 µM): 5.28%
viability, T/C (second compound 0.0003 µM, first compound 0.0949 µM): 2.76%
viability, T/C (second compound 0.0003 µM, first compound 0.3 µM): 2.88%
viability, T/C (second compound 0.0003 µM, first compound 0.949 µM): 3.67%
viability, T/C (second compound 0.0003 µM, first compound 3 µM): 2.53%
viability, T/C (second compound 0.000949 µM, first compound 0.00949 µM): 4.52%
viability, T/C (second compound 0.000949 µM, first compound 0.03 µM): 4.93%
viability, T/C (second compound 0.000949 µM, first compound 0.0949 µM): 3.71%
viability, T/C (second compound 0.000949 µM, first compound 0.3 µM): 4.08%
viability, T/C (second compound 0.000949 µM, first compound 0.949 µM): 3.69%
viability, T/C (second compound 0.000949 µM, first compound 3 µM): 4.06%
viability, T/C (second compound 0.003 µM, first compound 0.00949 µM): 2.91%
viability, T/C (second compound 0.003 µM, first compound 0.03 µM): 4.29%
viability, T/C (second compound 0.003 µM, first compound 0.0949 µM): 5.46%
viability, T/C (second compound 0.003 µM, first compound 0.3 µM): 2.85%
viability, T/C (second compound 0.003 µM, first compound 0.949 µM): 3.44%
viability, T/C (second compound 0.003 µM, first compound 3 µM): 2.38%

CC(C)n1c(=O)n(C)c2cnc3cc(F)c(-c4ccc(OCCCN5CCCCC5)nc4)cc3c21 + COc1cc2c(cc1O)CCNC21CSC2c3c(OC(C)=O)c(C)c4c(c3C(COC1=O)N1C(O)C3Cc5cc(C)c(OC)c(O)c5C(C21)N3C)OCO4
IC50 [1]: 7230 nM
IC50 [2]: < 31.6 nM
IC50 [3]: < 31.6 nM
IC50 [4]: < 31.6 nM
IC50 [5]: < 31.6 nM
viability, T/C [6]: 98.6%
viability, T/C [7]: 66.3%
viability, T/C [8]: 83%
viability, T/C [9]: 103%
viability, T/C [10]: 70%
viability, T/C [11]: 42.2%
viability, T/C [12]: 46.2%
viability, T/C [13]: 13.4%
viability, T/C [14]: 36.4%
viability, T/C [15]: 42.7%
viability, T/C [16]: 34.5%
viability, T/C [17]: 15.9%
viability, T/C [18]: 3.13%
viability, T/C [19]: 2.8%
viability, T/C [20]: 4.96%
viability, T/C [21]: 7.62%
viability, T/C [22]: 9.67%
viability, T/C [23]: 7.88%
viability, T/C [24]: 5.33%
viability, T/C [25]: 5.23%
viability, T/C [26]: 5.71%
viability, T/C [27]: 5.14%
viability, T/C [28]: 5.57%
viability, T/C [29]: 8.28%
viability, T/C [30]: 5.09%
viability, T/C [31]: 4.6%
viability, T/C [32]: 4.56%
viability, T/C [33]: 5.67%
viability, T/C [34]: 3.66%
viability, T/C [35]: 5.04%

CC1COCCN1c1cc(-c2ccnn2C)c2ccnc(-c3ccn[nH]3)c2n1 (stereo not given)
viability, T/C (compound 0.0316 µM): 66.6% and 84.9% and 71.4%
viability, T/C (compound 0.1 µM): 36.7% and 35.1% and 32.9%
viability, T/C (compound 0.316 µM): 5.46% and 8.95% and 25.5%
viability, T/C (compound 1 µM): 1.99% and 2.55% and 7.57%
viability, T/C (compound 3.16 µM): 1.12% and 1.22% and 2.57%
viability, T/C (compound 10 µM): 2.74% and 1.68% and 1.22%
IC50 (curve of compound): 60 nM and 70.9 nM and 64.3 nM
